From ChEMBL document CHEMBL1201862, “PubChem BioAssay data set” (2004)
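Compound exposure: 48 hours, 5 concentrations, 96-well plates. Abbreviation: GI50, concentration required for 50% inhibition of growth.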 Active and inactive are the calls of the source. No stated cut-off is given here; in the data, active = GI50 up to about 1.1 µM and inactive = higher.

Columns and labels:
Experiment in all cases: DTP human tumour cell line panel, 48 h
OVCAR-8 = tested on: OVCAR-8
NCI-H522 = tested on: NCI-H522
UO-31 = tested on: UO-31
HOP-92 = tested on: HOP-92
SNB-75 = tested on: SNB-75
OVCAR-3 = tested on: OVCAR-3
SK-MEL-5 = tested on: SK-MEL-5
U-251 = tested on: U-251
SK-MEL-2 = tested on: SK-MEL-2
NCI-H460 = tested on: NCI-H460
MOLT-4 = tested on: MOLT-4
SK-MEL-28 = tested on: SK-MEL-28
SW-620 = tested on: SW-620
CAKI-1 = tested on: CAKI-1
TK-10 = tested on: TK-10
SK-OV-3 = tested on: SK-OV-3
Hs-578T = tested on: Hs-578T
M14 = tested on: M14
T47D = tested on: T47D

| Compound | GI50 (OVCAR-8) | GI50 (NCI-H522) | GI50 (UO-31) | GI50 (HOP-92) | GI50 (SNB-75) | GI50 (OVCAR-3) | GI50 (SK-MEL-5) | GI50 (U-251) | GI50 (SK-MEL-2) | GI50 (NCI-H460) | GI50 (MOLT-4) | GI50 (SK-MEL-28) | GI50 (SW-620) | GI50 (CAKI-1) | GI50 (TK-10) | GI50 (SK-OV-3) | GI50 (Hs-578T) | GI50 (M14) | GI50 (T47D) |
| --- | --- | --- | --- | --- | --- | --- | --- | --- | --- | --- | --- | --- | --- | --- | --- | --- | --- | --- | --- |
| CCCCCCCCC/C=C1/CC(CO)(COC(=O)CC(C(C)C)C(C)C)OC1=O (stereo not drawn) | 16 µM (inactive) | 10.4 µM (inactive) | 2.44 µM (inactive) | 1.28 µM (inactive) | 4.51 µM (inactive) | 13.9 µM (inactive) | 3.16 µM (inactive) | 11.9 µM (inactive) | 15.1 µM (inactive) | 3.1 µM (inactive) | 1.16 µM (inactive) | 14.4 µM (inactive) | 1.16 µM (inactive) | 4.18 µM (inactive) | 2.89 µM (inactive) | 17.4 µM (inactive) | 0.109 µM (active) | 2.39 µM (inactive) | 4.91 µM (inactive) |
| O=C(O)c1ccccc1-c1ccccc1C(=O)Nc1ccc2c(c1)Cc1ccccc1-2 | 43.6 µM (inactive) | 21.3 µM (inactive) | 30 µM (inactive) | 46.8 µM (inactive) | 68.4 µM (inactive) | 25.3 µM (inactive) | 15.5 µM (inactive) | 28.6 µM (inactive) | 22.6 µM (inactive) | 19.2 µM (inactive) |  | 40.8 µM (inactive) | 31.8 µM (inactive) | 51.9 µM (inactive) | 45.1 µM (inactive) | 59.4 µM (inactive) | 48.5 µM (inactive) | 21.6 µM (inactive) | 26.3 µM (inactive) |
| COc1ccc(/N=N\c2c(N)nn3c(SC)c(C#N)c(N)nc23)cc1 | 5.04 µM (inactive) | 16.5 µM (inactive) | 12.4 µM (inactive) | 9.4 µM (inactive) | 17.8 µM (inactive) | 2.82 µM (inactive) | 16.1 µM (inactive) | 5.43 µM (inactive) | 2.76 µM (inactive) | 15.8 µM (inactive) | 2.61 µM (inactive) | 6.5 µM (inactive) | 4.6 µM (inactive) | 10.9 µM (inactive) | 19.1 µM (inactive) | 19.5 µM (inactive) | 2.52 µM (inactive) | 12.6 µM (inactive) | 1.85 µM (inactive) |
| CC(=O)/C=C1/C(=O)C(CC(C)C)=C1CC(C)C | > 100 µM (inactive) | > 100 µM (inactive) | > 100 µM (inactive) | > 100 µM (inactive) | > 100 µM (inactive) |  | > 100 µM (inactive) | > 100 µM (inactive) | > 100 µM (inactive) |  | 92.3 µM (inactive) | > 100 µM (inactive) | > 100 µM (inactive) | > 100 µM (inactive) | > 100 µM (inactive) | > 100 µM (inactive) | > 100 µM (inactive) | > 100 µM (inactive) | > 100 µM (inactive) |
| COC(=O)CCCC(=O)C1=NN(c2ccc(Cl)cc2)Cc2ccccc2N1 | 56.4 µM (inactive) | 54.7 µM (inactive) | > 100 µM (inactive) | > 100 µM (inactive) | 88.3 µM (inactive) | 93.8 µM (inactive) | > 100 µM (inactive) | > 100 µM (inactive) | > 100 µM (inactive) |  | > 100 µM (inactive) | > 100 µM (inactive) | > 100 µM (inactive) | > 100 µM (inactive) | > 100 µM (inactive) | > 100 µM (inactive) | 68.4 µM (inactive) | > 100 µM (inactive) | 5.56 µM (inactive) |
| C=C1C(=O)OC2C1C(OC(=O)/C(C)=C/C)CC(O)(CCl)C1C(O)C3OC3(C)C21O (stereo not drawn) | 13.2 µM (inactive) | 0.7 µM (active) |  | 24.9 µM (inactive) | > 50 µM (inactive) | 27.5 µM (inactive) | 28.2 µM (inactive) | > 50 µM (inactive) | > 50 µM (inactive) | > 50 µM (inactive) | 13.6 µM (inactive) | > 50 µM (inactive) | 13.4 µM (inactive) | 13.2 µM (inactive) | 40.1 µM (inactive) | > 50 µM (inactive) | > 50 µM (inactive) | 23.3 µM (inactive) | 23.8 µM (inactive) |
| C[C@@H]1CC[C@@]2(OC1)O[C@H]1C[C@H]3[C@@H]4CC[C@H]5C[C@@H](OC6OC(CO)C(OC7OC(CO)C(O)C(OC8OCC(O)C(O)C8O)C7OC7OC(CO)C(O)C(O)C7O)C(O)C6O)[C@H](O)C[C@]5(C)[C@H]4CC[C@]3(C)[C@H]1[C@@H]2C (stereo partly drawn) | 2.97 µM (inactive) | 0.426 µM (active) | 4.52 µM (inactive) | 23.6 µM (inactive) | 13.6 µM (inactive) | 2.88 µM (inactive) | 9.84 µM (inactive) | 3.13 µM (inactive) | 9.08 µM (inactive) | 1.85 µM (inactive) | 11.3 µM (inactive) | 15.4 µM (inactive) | 4.19 µM (inactive) | 2.21 µM (inactive) | 4.36 µM (inactive) | 10.8 µM (inactive) | 5.75 µM (inactive) | 15.2 µM (inactive) | 5.38 µM (inactive) |
